Laboratory results: ChEMBL document CHEMBL1129601, “Inhibitors of acyl-CoA: cholesterol O-acyl transferase (ACAT) as hypocholesterolemic agents. CI-1011: an acyl sulfamate with unique cholesterol-lowering activity in animals fed noncholesterol-supplemented diets” (J Med Chem, 1996)

Assays:
Format in all cases: ADME
[1] = Solution Degradation Studies measured by compound unchanged at pH 6.4 = 50% water / 50% acetonitrile at 24 hours; conditions: 50% water / 50% acetonitrile solution, read-out: Unchanged
[2] = Solution Degradation Studies measured by compound unchanged at pH 6.4 = 50% water / 50% acetonitrile at 8 hours; conditions: 50% water / 50% acetonitrile solution, read-out: Unchanged
[3] = Solution Degradation Studies measured by compound unchanged at pH 0.4=50% 1 M HCl/50% acetonitrile at 2 hours; conditions: 50% 1 M HCl / 50% acetonitrile solution, read-out: Unchanged
[4] = Solution Degradation Studies measured by compound unchanged at pH 0.4=50% 1 M HCl/50% acetonitrile at 8 hours; conditions: 50% 1 M HCl / 50% acetonitrile solution, read-out: Unchanged
[5] = Solution Degradation Studies measured by compound unchanged at pH 0.4=50% 1 M HCl/50% acetonitrile at 4 hours; conditions: 50% 1 M HCl / 50% acetonitrile solution, read-out: Unchanged
[6] = Solution Degradation Studies measured by compound unchanged at pH 6.4 = 50% water / 50% acetonitrile at 4 hours; conditions: 50% water / 50% acetonitrile solution, read-out: Unchanged
[7] = Solution Degradation Studies measured by compound unchanged at pH 0.4=50% 1 M HCl/50% acetonitrile at 24 hours; conditions: 50% 1 M HCl / 50% acetonitrile solution, read-out: Unchanged
[8] = Solution Degradation Studies measured by compound unchanged at pH 0.4=50% 1 M HCl/50% acetonitrile at 0 hours; conditions: 50% 1 M HCl / 50% acetonitrile solution, read-out: Unchanged
[9] = Solution Degradation Studies measured by compound unchanged at pH 6.4 = 50% water / 50% acetonitrile at 2 hours; conditions: 50% water / 50% acetonitrile solution, read-out: Unchanged
[10] = Solution Degradation Studies measured by compound unchanged at pH 6.4 = 50% water / 50% acetonitrile at 0 hours; conditions: 50% water / 50% acetonitrile solution, read-out: Unchanged
[11] = Solution Degradation Studies measured by compound unchanged at pH 0.4=50%1 M HCl/50% acetonitrile at 2 hours; conditions: 50% 1 M HCl / 50% acetonitrile solution, read-out: Unchanged
[12] = Solution Degradation Studies measured by compound unchanged at pH 0.4=50%1 M HCl/50% acetonitrile at 0 hours; conditions: 50% 1 M HCl / 50% acetonitrile solution, read-out: Unchanged
[13] = Solution Degradation Studies measured by compound unchanged at pH 0.4=50%1 M HCl/50% acetonitrile at 8 hours; conditions: 50% 1 M HCl / 50% acetonitrile solution, read-out: Unchanged
[14] = Solution Degradation Studies measured by compound unchanged at pH 0.4=50%1 M HCl/50% acetonitrile at 4 hours; conditions: 50% 1 M HCl / 50% acetonitrile solution, read-out: Unchanged
[15] = Solution Degradation Studies measured by compound unchanged at pH 0.4=50%1 M HCl/50% acetonitrile at 24 hours; conditions: 50% 1 M HCl / 50% acetonitrile solution, read-out: Unchanged

SMILES | remaining at 24 h [1] [%] | remaining at 8 h [2] [%] | remaining at 2 h [3] [%] | remaining at 8 h [4] [%] | remaining at 4 h [5] [%] | remaining at 4 h [6] [%] | remaining at 24 h [7] [%] | remaining at 0 h [8] [%] | remaining at 2 h [9] [%] | remaining at 0 h [10] [%] | remaining at 2 h [11] [%] | remaining at 0 h [12] [%] | remaining at 8 h [13] [%] | remaining at 4 h [14] [%] | remaining at 24 h [15] [%]
Cc1cccc(C)c1OC(=O)NS(=O)(=O)Oc1c(C(C)C)cccc1C(C)C | 20 | 48 | 71 | 37 | 57 | 65 | 5 | 93 | 79 | 94 | – | – | – | – | –
CC(C)c1cccc(C(C)C)c1OC(=O)NS(=O)(=O)Oc1c(C(C)C)cccc1C(C)C [listing 1 of 2 here] | 100 | 100 | – | – | – | 100 | – | – | 100 | 100 | 92 | 100 | 68 | 83 | 25
CC(C)c1cccc(C(C)C)c1OS(=O)(=O)NC(=O)Oc1c(C(C)(C)C)cccc1C(C)(C)C | 98 | 99 | 100 | 98 | 99 | 99 | 97 | 100 | 100 | 100 | – | – | – | – | –
CC(C)c1cccc(C(C)C)c1OC(=O)NS(=O)(=O)Oc1c(C(C)C)cccc1C(C)C [listing 2 of 2 here] | 37 | 74 | 88 | 66 | 80 | 85 | 23 | 95 | 87 | 95 | – | – | – | – | –
